The text below walks through data of US9827187B2, “Filaggrin gene expression promoter” (Shiseido Company, Ltd., priority 2012, dated 2017).

Assay [1] relates to filaggrin gene. Briefly: Filaggrin gene expression promotion by 1PP, zanthoxylum extract and their combination (QPCR, cultured keratinocytes). Format: cell-based, human. The settings on record: agent at 0.1% in medium (combination: 0.1% each); keratinocytes collected after 18 hours; versus no-agent control; FIG. 4.
Description: Commercially available normal adult skin-derived keratinocytes (Cellntec AG) were disseminated in a culture plate to a concentration of 3×10^3 cells/cm^2 followed by culturing in epithelial cell medium (CnT-BM.1, Cellntec AG) at 37° in a 5% CO2 atmosphere. […] The absence of addition of pharmaceutical agent was used as a control.
RNA was extracted from the collected cells using a commercially available RNA extraction-cDNA synthesis kit (FastLane Cell cDNA Kit, Qiagen N.V.) to prepare cDNA. Filaggrin expression levels were measured by quantitative PCR (QPCR) using this cDNA. A commercially available QPCR reagent kit (Brilliant III Ultra-Fast SYBR Green QPCR Kit, Agilent Technologies Inc.) and QPCR measurement system (MX-3000P Real-time Quantitative PCR System, Agilent Technologies Inc.) were used for QPCR. The expression level of a housekeeping gene in the form of RPLP0 gene was quantified for use as an internal standard, and the relative expression level with respect to PLP0 was calculated and used as the expression level of filaggrin gene. The primer sequences shown in Table 1 were used for the sequences of the PCR primers.
Assay [2] concerns filaggrin gene. Briefly: Screening pharmaceutical agents that promote filaggrin gene expression (QPCR, cultured keratinocytes). Type of assay: cell-based, human. The settings on record: candidate agent at 1% in medium; normal adult skin-derived keratinocytes; 18 hours after addition; relative to RPLP0; FIG. 3. The method, then: Commercially available normal adult skin-derived keratinocytes (Cellntec AG) were disseminated in a culture plate to a concentration of 3×10^3 cells/cm^2 followed by culturing in epithelial cell medium (CnT-BM.1, Cellntec AG) at 37° in a 5% CO2 atmosphere. Three days later, the medium was replaced with medium containing each of the candidate pharmaceutical agents at a concentration of 1% followed by continuing culturing at 37° C. and 5% CO2 and collecting the cells after 2 hours and after 18 hours. The candidate pharmaceutical agents added to the medium consisted of zanthoxylum extract (Maruzen Pharmaceuticals Co., Ltd.), geranium oil (Koei Kogyo Co., Ltd.), cypress oil (Bioland Co., Ltd.), rose oil (Bioland Co., Ltd.), galvanum oil (Bioland Co., Ltd.), pepper oil (Bioland Co., Ltd.), basil oil (Bioland Co., Ltd.), methyl-o-toluate (Aldrich Inc.), methyl anthranilate (Tokyo Chemical Industry Co., Ltd.), dimethyl anthranilate (Tokyo Chemical Industry Co., Ltd.), clove bud caryophyllata oil (Bioland Co., Ltd.) and arnica oil (Koei Kogyo Co., Ltd.). The absence of addition of pharmaceutical agent was used as a negative control, and cortisol (concentration in medium: 50 ng/mL) was used as a positive control.
RNA was extracted from the collected cells using a commercially available RNA extraction-cDNA synthesis kit (FastLane Cell cDNA Kit, Qiagen N.V.) to prepare cDNA. Filaggrin expression levels were measured by quantitative PCR (QPCR) using this cDNA. Expression levels of clock genes PER3 and BMAL1 were measured simultaneously and compared with the expression rhythm of filaggrin gene. A commercially available QPCR reagent kit (Brilliant III Ultra-Fast SYBR Green QPCR Kit, Agilent Technologies Inc.) and QPCR measurement system (MX-3000P Real-time Quantitative PCR System, Agilent Technologies Inc.) were used for QPCR. The expression level of a housekeeping gene in the form of RPLP0 gene was quantified for use as an internal standard, and the relative expression level with respect to PLP0 was calculated and used as the expression level of filaggrin gene. […]

Each structure is given as a SMILES string.

With `O=C(O)CCN1CCCCC1` [1PP, 3-(1′-piperidine)propionic acid], the “effect of promoting filaggrin gene expression” value in the assay with filaggrin gene [1] is on record as “effect of promoting filaggrin gene expression that was comparable to that of zanthoxylum extract”.

`CNc1ccccc1C(=O)OC` [dimethyl anthranilate, 2-methyl aminomethylbenzoate]: in the assay on filaggrin gene [2], the “expression of filaggrin gene after 18 hours in comparison with the negative control” value (shortened to “expression of filaggrin gene”) is recorded as “promote expression of filaggrin gene”.

Regarding `COC(=O)c1ccccc1N` [methyl anthranilate, methyl 2-aminobenzoate], the “expression of filaggrin gene” value in the assay on filaggrin gene [2] is “promote expression of filaggrin gene”.

For the compound `COC(=O)c1ccccc1C` [methyl-o-toluate, methyl 2-methylbenzoate], in the assay on filaggrin gene [2], the “expression of filaggrin gene” value is “promote expression of filaggrin gene”.
